# Measurements from patent US6143910A, “Methods for preparation and use of 1α, 24(S) -dihydroxy vitamin D2” (priority 1998, dated 2000).
# Assays:
# [1] = Dose ranging study in postmenopausal osteoporotic women; format: in vivo, human; conditions: oral 0.5 to 8.0 μg/day, escalated weekly over five weeks
# Description: Twenty postmenopausal osteoporotic women are enrolled in an open label study.
# On admission to the study, all patients receive instruction on selecting a daily diet containing 400 to 600 mg of calcium. Compliance to this diet is verified at weekly intervals by 24-hour food records and by interviews with each patient.
# All patients complete a one-week baseline period, a five-week treatment period, and a one-week post-treatment observation period. During the treatment period, patients orally self-administer 1α,24(S)-dihydroxyvitamin D2 at an initial dose of 0.5 μg/day for the first week, and at successively higher doses of 1.0, 2.0, 4.0, and 8.0 μg/day in each of the following four weeks. All doses are administered before breakfast.
# Blood and urine chemistries are monitored on a weekly basis throughout the study. Key blood chemistries include fasting serum levels of-calcium, phosphorus, osteocalcin, creatinine, and blood urea nitrogen. Key urine chemistries include 24-hour excretion of calcium, phosphorus, and creatinine.
# [2] = Prophylaxis of postmenopausal bone loss in healthy postmenopausal women; format: in vivo, human; conditions: at or above 1.0 μg/day
# Description: A clinical study is conducted with healthy postmenopausal women having ages between 55 and 60 years. The study involves up to 80 patients randomly divided into two treatment groups, and continues for 24 to 36 months. One treatment group receives a constant dosage of 1α,24(S)-dihydroxy vitamin D2 (u.i.d.; a dose level at or above 1.0 μg/day) and the other receives a matching placebo. The study is conducted as indicated in Example 2 above.
# [3] = Dermatological testing, topical treatment of dermatitis; format: in vivo, human; conditions: ointment 10 μg per gram, twice daily, four to six weeks
# Description: Compositions containing 1α,24(S)-dihydroxy vitamin D2 are evaluated for therapeutic efficacy of the composition in the topical treatment of dermatitis (contact and ectopic). The composition evaluated is an ointment containing 10 μg of 1α,24-dihydroxy vitamin D2 per gram of ointment in a petrolatum-almond oil base. […] The patients are treated in an out-patient clinic. They are instructed to use the preparation two times a day.
# The ointment is as far as possible applied to a single lesion, or to an area of the disease. The ointment and its container are weighed before the treatment starts and returned with any unused contents for reweighing at the end of the treatment.
# The area of the lesion treated is estimated and recorded, and the lesion is photographed as required, together with suitable "control" lesions. The latter are preferably lesions of similar size and stage of development, either in the vicinity of the treated lesion or symmetrically contralateral. Relevant details of the photographic procedure are recorded so as to be reproduced when the lesions are next photographed (distance, aperture, angle, background, etc.). The ointment is applied twice daily and preferably left uncovered. The "control" lesions are left untreated, but if this is not possible, the treatment used on them is noted. […]
# [4] = tested on: Human keratinocytes; assay: Epidermal cell differentiation and proliferation testing; format: cell-based; conditions: 0.05 to 5 μg/ml
# Description: Human keratinocytes are cultured according to known modifications of the system originally described by Rheinwald and Green (Cell, vol. 6, p. 331 (1975)). The 1α,24(S)-dihydroxy vitamin D2, dissolved in ethanol, is added to cells to yield a variety of concentrations between 0.05 and 5 μg/ml with the ethanol concentration not to exceed 0.5% v/v. Control cultures are supplemented with ethanol at a final concentration of 0.5% v/v.
# Differentiation and proliferation of epidermal cells in culture is examined by:
# 1. quantitation of cornified envelopes;
# 2. quantitation of cell density of cells attached to disks;
# 3. monitoring transglutaminase activity; or
# 4. monitoring DNA synthesis by incorporation of ^3 H-thymidine.
# [5] = tested on: BCA-1 or ZR-75-1 (breast) and COL-1 (colon); assay: Antiproliferative activity in human cancer cell lines, thymidine incorporation; format: cell-based; conditions: dose-response studies
# Description: Dose-response studies are conducted with 1α,24(S)-(OH)2 D2 in a battery of human cancer cell lines. These cell lines include, but are not limited to, the following: BCA-1 or ZR-75-1 (breast) and COL-1 (colon), as described by Shieh, H. L. et al. Chem. Biol. Interact., vol. 81, pp. 35-55 (1982). In this study, appropriate solvents are used as negative controls.
smiles,measurement,setting,value
"C=C1/C(=C\C=C2/CCC[C@]3(C)[C@@H]([C@H](C)/C=C/[C@@](C)(O)C(C)C)CC[C@@H]23)C[C@@H](O)C[C@@H]1O [1α,24(S)-(OH)2 D2, 1α,24(S)-dihydroxy Vitamin D2]",24-hour urinary calcium levels,[1],modest increases
same,Routinely monitored serum parameters,[1],no effect on any routinely monitored serum parameters
same,Serum osteocalcin levels,[1],increases in serum osteocalcin levels
same,Urinary excretion of hydroxyproline,[1],nor does it increase urinary excretion of hydroxyproline
same,"Losses in total body calcium, radial or spinal bone densities versus baseline",[2]; 24 to 36 months,reduced losses
same,Monitored safety parameters,[2]; long-term,confirm the safety
same,Incidence of hypercalcemia,[3],insignificant incidence of hypercalcemia
same,"Lesion severity scores (erythema, scaling, thickness, rated 0 to 3)",[3],lower scores than the control lesions
same,Cell density of attached cells versus control cultures,[4],fewer attached cells
same,Cornified envelopes versus control cultures,[4],more cornified envelopes
same,DNA synthesis (3H-thymidine incorporation) versus control cultures,[4],lower DNA synthesis
same,Transglutaminase activity versus control cultures,[4],higher transglutaminase activity
same,"Antiproliferative activity, inhibition of thymidine incorporation",[5],potent (and reversible) antiproliferative activity
